Tested on: patient diagnosed with hemophagocytic syndrome
Assay: Clinical protocol for hemophagocytic syndrome (patient cases)
Format: in vivo, human
Procedure: Example 1. Clinical Protocol for Hemophagocytic Syndrome
Method of administration: orally administered once before breakfast in the morning and once after 12 h, with 28 consecutive days of administration as one treatment cycle.
Drug: the compound of formula I in 5 mg or 20 mg tablets, the compound of formula I being shown as its stereoisomer, a compound of formula II
[drawing 5] 1.2. Inclusion Criteria • 1) Age ≥18 years; ECOG scoring: 0-3; an expected survival of more than 3 months; • 2) A patient unambiguously diagnosed as having a first occurrence or first recurrence of HLH according to the HLH-2004 criteria; • 3) Other medication for HLH, if any, has been interrupted for 2 weeks or more; it has been 4 weeks or more since major surgery, if any; • 4) Laboratory tests should meet the following: blood routine examination: hemoglobin (Hb)≥60 g/L; absolute neutrophil count (ANC)≥0.5×10^9/L; platelet (PLT)≥30×10^9/L; liver function: serum total bilirubin (TBIL)<171 μmol/L; renal function: serum creatinine (Cr)≤1.5×ULN; blood coagulation function: activated partial thromboplastin time (APTT) and international normalized ratio (INR)≤1.5×ULN; • 5) Female patients should agree to take contraceptive measures (such as intrauterine devices [IUD], contraceptives or condoms) during the study and for at least 6 months after the study; serum pregnancy test results should be negative within 7 days before the study, and the patients must not be breastfeeding; male subjects should agree to take contraceptive measures during the study and for at least 6 months after the study; • 6) Voluntary participation, written informed consent and good compliance. 1.3. Evaluation Method
The therapeutic effect was evaluated by referring to the criteria of “2018 HLH Chinese Expert Consensus”. During induction treatment, it was recommended to evaluate the therapeutic effect every 2 weeks.
1.4. Therapeutic Effects Case 1
A patient diagnosed with hemophagocytic syndrome was given 20 mg/dose of tablets of the compound of formula II according to the administration regimen described in 1.1. The blood was tested regularly for the plasma concentration. The indexes such as blood routine examination results, biochemical profile and blood coagulation were dynamically monitored, and the patient's condition and vital signs were continuously dynamically monitored closely.
A patient diagnosed with hemophagocytic syndrome was given 15 mg/dose of tablets of the compound of formula II according to the administration regimen described in 1.1. The blood was tested regularly for the plasma concentration. The indexes such as blood routine examination results, biochemical profile and blood coagulation were dynamically monitored, and the patient's condition and vital signs were continuously dynamically monitored closely.

[1] = Case 2, 15 mg/dose tablets orally twice a day, after one administration cycle

N#CC[C@H](C1CCCC1)n1cc(-c2ncnc3[nH]ccc23)c(N)n1 [compound of formula II]
disease status (Case 1, patient, 20 mg/dose tablets orally twice a day (12 h interval), after one administration cycle (28 days)): remained stable
tolerability of the treatment (Case 1, patient, 20 mg/dose tablets orally twice a day, after one administration cycle (28 days)): tolerable
disease status (Case 2, patient, 15 mg/dose tablets orally twice a day (12 h interval), after one administration cycle (28 days)): remained stable
ferritin level decrease [1]: ≥ 25%
sCD25 level decrease (factor) [1]: 3/2
therapeutic effect evaluation (2018 HLH Chinese Expert Consensus criteria) [1]: partial response
tolerability of the treatment [1]: tolerable

— patent US12447154B2, “Use of pyrrolopyrimidine compound for treating hemophagocytic syndrome” (CHIA TAI TIANQING PHARMACEUTICAL GROUP CO., LTD., priority 2020, dated 2025)
